Data set [1] is described as follows: Phenytoin precipitation inhibition in PBS containing dissolved polymer. Format: physicochemical. As to conditions: PBS pH 6.5, 37° C., 500 μg/mL if all dissolved. How it is done:
Phenyloin was dissolved in methanol at a concentration of 18 mg/mL. The polymers were dissolved in PBS (20 mM sodium phosphate (Na2HPO4), 47 mM potassium phosphate (KH2PO4), 87 mM NaCl, and 0.2 mM KCl, adjusted to pH 6.5 with NaOH) at a concentration of 1.5 mg/mL. […] HPLC was performed using a ZORBAX® RX-C18 column (4.6×75 mm, 3.5 μm, Agilent Technologies) and a mobile phase comprising 0.2% H3PO4 in water, at a flow rate of 1.0 mL/min; 10 μL of each solution was injected. […] HPMCAS-K(3) and HPMCAS-LG have similar degrees of succinate substitution ([…], respectively (see Table 7)), but greatly different degrees of acetate substitution (1.41 and 0.47, respectively).

Data set [2] in a line: Microcentrifuge dissolution of 25 wt % phenytoin spray-dried dispersions in MFDS. It counts as physicochemical. To be noted: dissolved phenytoin; SDD or bulk in MFDS pH 6.5, 37° C. The source says:
In another separate embodiment, compositions containing the HPMCAS polymers are concentration enhancing. The term “concentration enhancing” means that the polymer is present in a sufficient amount in the composition so as to improve, or increase, the concentration of dissolved active agent in an aqueous use environment relative to a control composition free from the polymer. As used herein, a “use environment” can be either the in vivo environment of the gastrointestinal tract, subdermal, intranasal, buccal, intrathecal, ocular, intraaural, subcutaneous spaces, vaginal tract, arterial and venous blood vessels, pulmonary tract or intramuscular tissue of an animal, such as a mammal and particularly a human, or the in vitro environment of a test solution, such as phosphate buffered saline (PBS), simulated intestinal buffer without enzymes (SIN), a Model Fasted Duodenal (MFD) solution, or a solution to model the fed state. Concentration enhancement may be determined through either in vitro dissolution tests or through in vivo tests. It has been determined that enhanced active agent concentrations in in vitro dissolution tests in such in vitro test solutions provide good indicators of in vivo performance and bioavailability. An appropriate PBS solution is an aqueous solution comprising 20 mM sodium phosphate (Na2HPO4), 47 mM potassium phosphate (KH2PO4), 87 mM NaCl, and 0.2 mM KCl, adjusted to pH 6.5 with NaOH. An appropriate SIN solution is 50 mM KH2PO4 adjusted to pH 7.4. […] In particular, a composition may be dissolution-tested by adding it to an in vitro test solution and agitating to promote dissolution, or by performing a membrane-permeation test as described in U.S. Published Patent Application No. 2008/0262107, which is incorporated herein by reference. Spray-dried dispersions (SDDs) comprising 25 wt % phenyloin in HPMCAS-K(3), HPMCAS-K(1), HPMCAS-HG, and HPMCAS-LG were prepared as described in section VIII. […] Dissolved concentrations were measured by HPLC.

Structures are written as SMILES.

In the case of `O=C1NC(=O)C(c2ccccc2)(c2ccccc2)N1` [Phenytoin bulk, Phenytoin], the C1200 in data set [1] (dissolved phenytoin at 1200 min) is 80 µg/mL; in data set [2] it was 40 µg/mL. Also, the AUC90 is 6,500 min * μg/mL in data set [1] (dissolved phenytoin, 0-90 min) and 3,500 min * μg/mL in data set [2]. The Cmax90 in data set [1] (dissolved phenytoin, maximum in first 90 min) was 120 µg/mL; in data set [2] it was 40 µg/mL.

The values are drawn from US9040033B2, “Hydroxypropyl methyl cellulose acetate succinate with enhanced acetate and succinate substitution” (Dow Global Technologies LLC, priority 2010, dated 2015).
